Values of other authors in patent US20180271836A1, “TOPICAL NON-AQUEOUS PHARMACEUTICAL FORMULATIONS CONTAINING AN ALKYL SULFOXIDE FOR THE TREATMENT OF TOPICAL REFERENCE INFECTIONS” (priority 2012, published 2018).

pKa: 6.5
Compound: Clc1ccc(COC(Cn2ccnc2)c2ccc(Cl)cc2Cl)c(Cl)c1 (stereo not shown) [miconazole]
